Here are results for one compound from publication PMC9743128, “Phenotype-based screening rediscovered benzopyran-embedded microtubule inhibitors as anti-neuroinflammatory agents by modulating the tubulin–p65 interaction” (Experimental & Molecular Medicine, 2022).

Broadly, the pIC50 is the IC50 on a negative log10 scale, so that one unit is a factor of ten. One may read the viability as a read-out of living cells in per cent, often relative to untreated cells.

Data set [1] relates to LPS-mediated NO release in BV-2 microglial cells. Description: Griess assay: cellular NO release after LPS treatment. In kind it is cell-based, murine. As to the method: Cellular secretion of nitric oxide (NO) was quantified with the Griess assay. BV-2 cells were seeded on a clear flat bottom TC-treated 96-well plate (Corning; #3598) and sealed with breathable sealing tape (Axygen; BF-400-S). After 18 h, BV-2 cells were treated with compounds in the absence or presence of 100 ng/mL LPS (Sigma; L4391). After 24 h, 50 μL of the cell culture media was mixed with the same volume of Griess reagent {0.1% naphthylethylenediamine dihydrochloride (Sigma; #222488) and 1% sulfanilamide (Sigma; S9251) in 4% phosphoric acid (Daejung; #6532-4405)}. Absorbance at 550 nm was measured using a microplate reader (BioTek; Synergy). Sodium nitrite (Alfa Aesar; A18668) was used for standard curve generation.
Microglia are tissue-resident macrophages involved in CNS immunosurveillance[3],[39]. Microglial activation induces proinflammatory cytokine tumor necrosis factor α (TNF-α) expression, resulting in neural toxicity[5],[6]. Therefore, the inhibition of microglial activation is critical for regulating neuroinflammation. To discover anti-neuroinflammatory NCEs, we monitored the cellular release of nitric oxide (NO) in response to lipopolysaccharide (LPS) treatment as a mimic of pathogenic activation of innate immune systems upon compound treatment in BV-2 cells using the Griess assay.
On the technique in general: The Griess reaction detects nitrite, a stable product of nitric oxide.

Data set [2] concerns p65 nuclear translocation in J774A.1 and RAW264.7 cells. Description: p65 nuclear translocation by immunofluorescence staining. It is filed as cell-based, murine. The following applies: 10 μM for 1 h, then LPS; LPS alone 80%, basal 40%. As to the method:
To monitor p65 translocation, J774A.1 cells were treated with compounds for 1 h, followed by LPS (100 ng/ml) treatment for 30 min. The cells were fixed with 4% paraformaldehyde (Sigma; #158127) in PBS (w/v) for 30 min at room temperature. After washing with 1× PBS (Welgene; ML008-02) three times, the fixed cells were permeabilized with PBS containing 0.1% Triton X-100 for 10 min. The cells were washed with 1× PBS three times and then blocked with 4% bovine serum albumin (MP Biomedicals; #0216006980) in PBS (w/v) for 1 h. The cells were incubated with mouse anti-p65 antibody (Santa Cruz; sc-8008, 1:200 diluted in 1% BSA–PBS) at 4 °C overnight and washed with PBS three times. FITC-labeled goat anti-mouse IgG antibody (Abcam; ab6785, 1:200 diluted in 1% BSA–PBS) was added to the sample and incubated for 1 h at room temperature. The remaining antibodies were finally washed three times with PBS. Nuclei were stained with Hoechst 33342 (Thermo; #62249). The cellular p65 proteins were imaged by fluorescence microscopy (GE Healthcare; Delta Vision) and quantified by the line profiling method.
During activation of the NF-κB signaling pathway, IκB is phosphorylated and degraded by proteasomes. The released p65 from IκB is translocated to the nucleus, inducing the transcription of target genes for inflammatory responses. Therefore, we monitored the translocation of p65 upon SB26019 treatment in J774A.1 and RAW264.7 murine macrophage cells stained with fluorescently labeled antibodies. […]

Data set [3] can be described thus: Cell viability assay (EZ-Cytox). The conditions noted are these: mouse, BV-2 microglial cells.
Description: (§1) A total of 40,000 cells were seeded on a 96-well plate and incubated for 18 h. After 6-, 12- and 24-h compound treatment, 10 μL of EZ-Cytox solution (Dogen; EZ-BULK150) was added to the 96-well plate. After 30 min, the absorbance at 455 nm was measured using a microplate reader (BioTek; Synergy).
(§2) (n=6). Data are presented as the mean ± SD.
Another data set concerns BV-2 cells. Description: Cell viability assay (EZ-Cytox). The following applies: BV-2, various time points.

pIC50: −log10 of the molar value. Bounds are passed on as bounds.

Description for BV-2 cells: as §1, §2

Consider `COc1ccc2c(c1O)OC(C)(C)C=C2c1cccc2c1oc1ccccc12` [Compound 8], for which the inhibition at 10 µM in data set [1] (Mus musculus, 10 μM, BV-2 cells, LPS, read-out: % NO inh. at 10 μM) was determined as 102%. The pIC50 in data set [1] (Mus musculus, BV-2 cells, 100 ng/mL LPS, 24 h) is 5.95. Besides, the “Anti-neuroinflammatory activity in compensated Griess assay with Taxol” value in data set [1] (SB26019 5 μM, with or without tubulin stabilizer Taxol) was “attenuated in the presence of Taxol in a dose-dependent manner”. In addition, the “p65 nuclear translocation in the presence of LPS” value in data set [2] is recorded as less than 60%. The viability at 10 µM in data set [3] came out at 108%. Moreover, the “Cytotoxicity (cell viability curve)” value in the data set on BV-2 cells is listed as “without considerable cytotoxicity”.
